Measured values from ChEMBL document CHEMBL1201862, “PubChem BioAssay data set” (2004).
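Following 48 hours of exposure in 96-well plates, responses at five concentrations were used to interpolate endpoints linearly. GI50 = concentration required for 50% inhibition of growth.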 The source made the active and inactive calls. Rule as the data show it: active = GI50 up to about 1.1 µM and inactive = higher.

Legend:
Assay in all cases: growth of human tumour cells (NCI), 48 h
SR = test system: SR
ACHN = test system: ACHN
Malme-3M = test system: Malme-3M
NCI-H23 = test system: NCI-H23
NCI-H460 = test system: NCI-H460
IGROV-1 = test system: IGROV-1
SK-MEL-28 = test system: SK-MEL-28
KM12 = test system: KM12
NCI-H522 = test system: NCI-H522
OVCAR-3 = test system: OVCAR-3
BT-549 = test system: BT-549
CAKI-1 = test system: CAKI-1
MDA-MB-435 = test system: MDA-MB-435
A549 = test system: A549
SK-MEL-5 = test system: SK-MEL-5
PC-3 = test system: PC-3
U-251 = test system: U-251
SNB-19 = test system: SNB-19
UACC-62 = test system: UACC-62

Structure (SMILES) | GI50 (SR) | GI50 (ACHN) | GI50 (Malme-3M) | GI50 (NCI-H23) | GI50 (NCI-H460) | GI50 (IGROV-1) | GI50 (SK-MEL-28) | GI50 (KM12) | GI50 (NCI-H522) | GI50 (OVCAR-3) | GI50 (BT-549) | GI50 (CAKI-1) | GI50 (MDA-MB-435) | GI50 (A549) | GI50 (SK-MEL-5) | GI50 (PC-3) | GI50 (U-251) | GI50 (SNB-19) | GI50 (UACC-62)
CC(C)(C)C1(COC(=O)c2ccc(N)cc2)COC1 | 75.3 µM (inactive) | 78.7 µM (inactive) | 89.7 µM (inactive) | 66.7 µM (inactive) | 48.4 µM (inactive) | > 100 µM (inactive) | > 100 µM (inactive) | 58.5 µM (inactive) | 47.6 µM (inactive) | 26.3 µM (inactive) | 54.6 µM (inactive) | > 100 µM (inactive) | 53.3 µM (inactive) | 52.6 µM (inactive) | 58.7 µM (inactive) | 47.2 µM (inactive) | 58.1 µM (inactive) | > 100 µM (inactive) | 55 µM (inactive)
COc1ccccc1/C=C/c1nc2ccccc2o1 | > 10 µM (inactive) | > 10 µM (inactive) | > 10 µM (inactive) | > 10 µM (inactive) | > 10 µM (inactive) | > 10 µM (inactive) | > 10 µM (inactive) | > 10 µM (inactive) | > 10 µM (inactive) | > 10 µM (inactive) | > 10 µM (inactive) | > 10 µM (inactive) | > 10 µM (inactive) | > 10 µM (inactive) | > 10 µM (inactive) | > 10 µM (inactive) | > 10 µM (inactive) | > 10 µM (inactive) | > 10 µM (inactive)
COC(=O)C(COC(=O)/C=C/c1ccc(OC(C)=O)c(OC(C)=O)c1)OC(=O)/C=C/c1ccc(OC(C)=O)c(OC(C)=O)c1 (stereo not drawn) | 3.01 µM (inactive) | 14.5 µM (inactive) | 15.5 µM (inactive) | 12 µM (inactive) | 18.7 µM (inactive) | 4.94 µM (inactive) | 15.5 µM (inactive) | 12 µM (inactive) | 5.18 µM (inactive) | 6.32 µM (inactive) | 15.1 µM (inactive) | 6.87 µM (inactive) | 11 µM (inactive) | 16.7 µM (inactive) | 14.8 µM (inactive) | 11.1 µM (inactive) | 4.62 µM (inactive) | 8.32 µM (inactive) | 16.8 µM (inactive)
COc1cc(C2S/C(=C/c3ccccc3)C(=O)N2c2ccc(Cl)cc2)cc(OC)c1OC (stereo not drawn) | 70 µM (inactive) | 0.178 µM (active) | 23.7 µM (inactive) | 12.7 µM (inactive) |  | 13.5 µM (inactive) | 63.2 µM (inactive) | 11.3 µM (inactive) | 0.656 µM (active) | 26.4 µM (inactive) | 7.43 µM (inactive) | 20.9 µM (inactive) | 1.52 µM (inactive) | 24.4 µM (inactive) | 0.492 µM (active) | > 46.6 µM (inactive) | 37.7 µM (inactive) | > 88.7 µM (inactive) | 23.3 µM (inactive)
Oc1cc(-c2ccccc2)nc2c(S)cccc12 | > 100 µM (inactive) | 95.3 µM (inactive) | > 100 µM (inactive) | > 100 µM (inactive) | > 100 µM (inactive) | > 100 µM (inactive) | > 100 µM (inactive) | > 100 µM (inactive) | > 100 µM (inactive) | > 100 µM (inactive) | > 100 µM (inactive) |  | > 100 µM (inactive) | > 100 µM (inactive) | 37.1 µM (inactive) | 47.3 µM (inactive) | > 100 µM (inactive) | > 100 µM (inactive) | > 100 µM (inactive)
Cc1ccc(C(=O)O)cc1S(=O)(=O)Nn1cnc2ccc(S(=O)(=O)Nc3ccccc3C(=O)O)cc2c1=O | > 100 µM (inactive) | > 100 µM (inactive) | > 100 µM (inactive) | > 100 µM (inactive) | > 100 µM (inactive) | 60.7 µM (inactive) | > 100 µM (inactive) | 10.9 µM (inactive) | > 100 µM (inactive) | > 100 µM (inactive) | > 100 µM (inactive) | > 100 µM (inactive) | > 100 µM (inactive) | > 100 µM (inactive) |  | 16.6 µM (inactive) | > 100 µM (inactive) | > 100 µM (inactive) | 8.93 µM (inactive)
CCOC(=O)/C=C(/C(=O)OCC)n1ccc(=O)n(Cc2cnnn2CCCCOC(C)=O)c1=O | 27.9 µM (inactive) | 51.2 µM (inactive) |  | > 100 µM (inactive) | > 100 µM (inactive) | > 100 µM (inactive) | > 100 µM (inactive) | > 100 µM (inactive) | 20.7 µM (inactive) | > 100 µM (inactive) | 60.3 µM (inactive) | 30.2 µM (inactive) | > 100 µM (inactive) | > 100 µM (inactive) | > 100 µM (inactive) | > 100 µM (inactive) | > 100 µM (inactive) | > 100 µM (inactive) | > 100 µM (inactive)
CC(C)(CN1CCCCC1)C(=O)CC(SCCS(=O)(=O)O)c1ccc(Cl)cc1 (stereo not drawn) | 2.18 µM (inactive) | 5.11 µM (inactive) | 5.38 µM (inactive) | 3.88 µM (inactive) | 6.41 µM (inactive) | 6.15 µM (inactive) |  | 4.31 µM (inactive) | 2.51 µM (inactive) | 5.22 µM (inactive) | 8.04 µM (inactive) | 6.73 µM (inactive) | 3.48 µM (inactive) | 6.56 µM (inactive) | 7.41 µM (inactive) | 4.44 µM (inactive) | 10.5 µM (inactive) | 14.8 µM (inactive) | 4.21 µM (inactive)
N#CC(C#N)=C1C(=Cc2ccc(OCCCCCCCCCCSSCCCCCCCCCCOc3ccc(C=C4C(=C(C#N)C#N)c5ccccc5C4=C(C#N)C#N)cc3)cc2)C(=C(C#N)C#N)c2ccccc21 | 19.2 µM (inactive) | 36.7 µM (inactive) |  | 17.3 µM (inactive) | 22.1 µM (inactive) | 42 µM (inactive) | 21.6 µM (inactive) | 25.4 µM (inactive) | 17.8 µM (inactive) | 29.7 µM (inactive) | 17 µM (inactive) | 24.7 µM (inactive) | 38.7 µM (inactive) | 15.5 µM (inactive) | 22.1 µM (inactive) | 20.8 µM (inactive) | 19.5 µM (inactive) |  | 
Cc1nc(C)c(N2CCN(Cc3ccccc3)CC2)c(O)n1 | > 100 µM (inactive) | > 100 µM (inactive) | > 100 µM (inactive) | > 100 µM (inactive) | > 100 µM (inactive) | > 100 µM (inactive) | > 100 µM (inactive) | > 100 µM (inactive) | > 100 µM (inactive) | > 100 µM (inactive) | > 100 µM (inactive) |  | > 100 µM (inactive) | > 100 µM (inactive) | > 100 µM (inactive) | > 100 µM (inactive) | > 100 µM (inactive) | > 100 µM (inactive) | > 100 µM (inactive)
CC(C)=CCc1c(OC(=O)c2c(C)cc(O)cc2O)cc(CO)c(CO)c1O | 20.7 µM (inactive) | 14.4 µM (inactive) | 17.5 µM (inactive) | 16.8 µM (inactive) | 17.6 µM (inactive) | 19.2 µM (inactive) | 18.5 µM (inactive) | 16.2 µM (inactive) | 18 µM (inactive) |  | 18.7 µM (inactive) | 5.48 µM (inactive) | 17.7 µM (inactive) | 6.43 µM (inactive) | 14.8 µM (inactive) | 18 µM (inactive) | 17.5 µM (inactive) | 8.07 µM (inactive) | 15.2 µM (inactive)
COC(OC)[C@@H]1OC[C@@H](O)[C@@H]1n1cnc2c(N)ncnc21 | > 100 µM (inactive) | > 100 µM (inactive) | > 100 µM (inactive) | > 100 µM (inactive) | > 100 µM (inactive) | > 100 µM (inactive) | > 100 µM (inactive) | > 100 µM (inactive) | > 100 µM (inactive) | > 100 µM (inactive) | > 100 µM (inactive) | > 100 µM (inactive) | > 100 µM (inactive) |  | > 100 µM (inactive) | > 100 µM (inactive) | > 100 µM (inactive) |  | > 100 µM (inactive)
CSc1ncnc2c1cnn2Cc1cn(COCC(O)CO)nn1 (stereo not drawn) | > 100 µM (inactive) | > 100 µM (inactive) |  | > 100 µM (inactive) |  | > 100 µM (inactive) | > 100 µM (inactive) | > 100 µM (inactive) | 21.2 µM (inactive) | > 100 µM (inactive) | > 100 µM (inactive) | > 100 µM (inactive) | > 100 µM (inactive) | > 100 µM (inactive) | > 100 µM (inactive) | > 100 µM (inactive) | > 100 µM (inactive) | > 100 µM (inactive) | > 100 µM (inactive)
O/N=C(\C=N\O)c1ccc2c(c1)Sc1ccccc1O2 | 19.7 µM (inactive) | 19.9 µM (inactive) | 29.5 µM (inactive) | 21.6 µM (inactive) | 23.7 µM (inactive) |  | 30.5 µM (inactive) | 33 µM (inactive) | 3.53 µM (inactive) | 17.7 µM (inactive) | 14.5 µM (inactive) | 23.8 µM (inactive) | 12.1 µM (inactive) | 30.8 µM (inactive) |  | 14.8 µM (inactive) | 26.8 µM (inactive) | 24.2 µM (inactive) | 18.1 µM (inactive)
O=C(/N=N/c1ccc([N+](=O)[O-])cc1)NNc1ccc([N+](=O)[O-])cc1 | 15.4 µM (inactive) | 13.5 µM (inactive) | 19 µM (inactive) | 15.5 µM (inactive) | 19.6 µM (inactive) | 12.8 µM (inactive) | 16.4 µM (inactive) |  | 17.7 µM (inactive) | 20.5 µM (inactive) | 15.5 µM (inactive) | 18.9 µM (inactive) | 12.8 µM (inactive) | 26 µM (inactive) | 13.9 µM (inactive) | 9.62 µM (inactive) | 18.9 µM (inactive) | 27 µM (inactive) | 10.3 µM (inactive)
